Earlier results as cited in publication PMC8745345, “Hydroxy Pentacyclic Triterpene Acid, Kaempferol, Inhibits the Human 5-Hydroxytryptamine Type 3A Receptor Activity” (International Journal of Molecular Sciences, 2022).
pIC50: −log10 of the molar value.

Tested on: 5-HT3A
Details: cited from earlier work

SMILES: Cc1nccn1CC1CCc2c(c3ccccc3n2C)C1=O (stereo not drawn) [ondansetron]
- pIC50 (5-HT3 antagonist potency): 8.31
- mode of antagonism: competitive antagonist
- efficacy of antagonist against I5-HT(100uM) of 5-HT3A (serotonin 100 uM): ~100%
